Assay [1] in a line: Inhibition of Geranylgeranyl transferase type I.
The target of assay [2] is Protein farnesyltransferase (Homo sapiens, UniProt P49354+P49356). The experiment in a line: Inhibition of human recombinant farnesyltransferase. The assay is classed as protein-complex assay.

pIC50: −log10 of the molar value. Where only a bound is given, the exact number is not on record here.

The values that follow come from ChEMBL document CHEMBL1130915, “Kampanols: novel Ras farnesyl-protein transferase inhibitors from Stachybotrys kampalensis” (Bioorg Med Chem Lett, 1998).

Broadly, the pIC50 is −log10 of the IC50, conventionally taken in molar units. Consider `CC(=O)O[C@H]1CC[C@]2(C)[C@H]3Cc4c(O)cc(CO)c(CO)c4O[C@@]3(C)CC[C@H]2C1(C)C`, for which the pIC50 is < 4.00 in assay [1] and 3.34 in assay [2].

For `COC1OC(OC)c2c1cc(O)c1c2O[C@@]2(C)CC[C@H]3C(C)(C)[C@@H](OC(C)=O)CC[C@]3(C)[C@H]2C1` (stereo partly drawn), the pIC50 is < 4.00 in assay [1] and 5.15 in assay [2].

`CC(=O)O[C@H]1CC[C@]2(C)[C@H]3Cc4c(O)cc(C=O)c(C=O)c4O[C@@]3(C)CC[C@H]2C1(C)C`: the pIC50 in assay [1] was < 4.00; in assay [2] it was 3.25.

In the case of `CC(=O)O[C@H]1CC[C@]2(C)[C@H]3Cc4c(O)cc5c(c4O[C@@]3(C)CC[C@H]2C1(C)C)COC5=O` [KAMPANOL A], the negative-log IC50 (pIC50) is < 4.00 in assay [1] and 4.89 in assay [2].
